Source: US20120164242A1, “NOVEL METHODS FOR MODULATING MELANIN PRODUCTION” (priority 2010, published 2012)

Test system: melanogenesis related genes
Assay: RT-PCR mRNA level of melanogenesis related genes in B16-F10 cells
Type: cell-based, mouse
Conditions: 100 μM, three days
Description: To determine whether THSG had similar effects as the PMT extract on the induction of melanin related gene expression, B16-F10 cells were cultured in medium containing PMT extract (10 μg/mL), THSG (10 μg/mL), naringenin (100 μM) for three days and RT-PCR was performed to analyze melanin biosynthesis related gene expression using the protocol as described in Example 4 above.

In the case of O=C1C[C@@H](c2ccc(O)cc2)Oc2cc(O)cc(O)c21 [naringenin], the “mRNA level of melanogenesis related genes” value is reported as “no increase”.
